Columns and labels:
[1] = test system: Pseudomonas aeruginosa PA14; test: Antibacterial activity: growth inhibition, OD600 after 24 h (GIC50); assay type: cell-based; details: 25° C.
Procedure: Starting from a 40 mM stock solution of each compound in DMSO, two-fold serial dilutions in 100 μl liquid broth per well were prepared in dublicate in sterile transparant microtiter plates. The broth used was TSB 1/20 for measurements at 25° C. and CFA (in case of Salmonella Typhimurium) and LBNS (in case of Pseudomonas aeruginosa) for measurements at 37° C. Subsequently an overnight culture of the bacteria (S. Typhimurium ATCC14028 or P. aeruginosa PA14) was diluted 1/200 into the corresponding liquid broth and 100 μl was added to each well of the microtiterplate resulting in a total amout of 200 μl medium per well. After an incubation of 24 hours the optical density at 600 nm of each well was determined with a microtiter plate reader (VERSAmax, Molecular Devices).
Evaluation of antibacterial-inhibitory activity of some substituted imidazo[1,2-a]pyrimidinium bromide salts of the invention was carried out by diluting an overnight culture of Salmonella Typhimurium ATCC14028 or Pseudomonas aeruginosa PA141/200 into liquid medium. 200 μl of the diluted overnight culture was added to each well of a microtiterplate together with different concentrations of the test compound (1/2 dilution series of the compound). After an incubation of 24 hours the optical density at 600 nm of each well was determined with a microtiter plate reader. […] The GIC50 values of representative compounds for antibacterial activity are shown in the following Tables 9 and 10 (wherein Ph stands for phenyl, Me for methyl): […]

[2] = test system: Pseudomonas aeruginosa PA14; test: Bioscreen assay: influence on planktonic growth curve; assay type: cell-based; design: key: x: no influence on the planktonic growth at the IC50 for biofilm inhibition; ∘: planktonic growth is retarded at the IC50 for biofilm inhibition; details: planktonic growth at the IC50 for biofilm inhibition, 25° C.
Source text: (§1) Some of the tested compounds show a concentration range in which biofilm formation is inhibited but no effect on planktonic growth is observed. These compounds are particularly interesting for prevention of biofilm formation since the development of resistance against these compounds is less likely. Table 8 indicates whether the different compounds have an effect on the planktonic growth of the bacteria at the IC50 for biofilm inhibition. To construct Table 8, the effect of the tested compounds on the growth curve of the bacteria was determined at a concentration equal to the IC50 for biofilm inhibition, by using the Bioscreen system available from Oy Growth Curves Ab Ltd). The Bioscreen device from Oy Growth Curves Ab Ltd was used for measuring the influence of the chemical compounds on the planktonic growth of Salmonella Typhimurium and Pseudomonas aeruginosa. The Bioscreen is a computer controlled incubator/reader/shaker that uses 10×10 well microtiter plates and measures light absorbance of each well at a specified wave length in function of time. An overnight culture of S. […] The broth used was TSB 1/20 for the experiments at 16° C. and 25° C. For experiments at 37° C. CFA medium was used for S. […] As a control 3 μl of the appropriate solvent (DMSO or EtOH) was also added to the plate in 3- or 4-fold. The microtiter plate was incubated in the Bioscreen device at 16° C., 25° C. or 37° C. for at least 36 hours, with continious medium shaking. The absorbance of each well was measured at 600 nm each 15 minutes. Excel was used to generate the growth curves for treated the treated wells and the untreated control wells. Some of the compounds show a concentration range in which biofilm formation is inhibited but no effect on the planktonic growth is observed. […] To construct this table the effect of the compounds on the growth curve of the bacteria was determined at a concentration equal to the IC50 for biofilm inhibtion, by using the Bioscreen system from Oy Growth Curves Ab Ltd.

[3] = test system: Pseudomonas aeruginosa PA14; test: as above; assay type: cell-based; design: key: x: no influence on planktonic growth at the IC50 for biofilm inhibition; planktonic growth is retarded at the IC50 for biofilm inhibition; details: planktonic growth at the IC50 for biofilm inhibition, 25° C.
Source text: Some of the tested compounds show a concentration range in which biofilm formation is inhibited but no effect on planktonic growth is observed. These compounds are particularly interesting for prevention of biofilm formation since the development of resistance against these compounds is less likely. Table 8 indicates whether the different compounds have an effect on the planktonic growth of the bacteria at the IC50 for biofilm inhibition. To construct Table 8, the effect of the tested compounds on the growth curve of the bacteria was determined at a concentration equal to the IC50 for biofilm inhibition, by using the Bioscreen system available from Oy Growth Curves Ab Ltd). The Bioscreen device from Oy Growth Curves Ab Ltd was used for measuring the influence of the chemical compounds on the planktonic growth of Salmonella Typhimurium and Pseudomonas aeruginosa. The Bioscreen is a computer controlled incubator/reader/shaker that uses 10×10 well microtiter plates and measures light absorbance of each well at a specified wave length in function of time. An overnight culture of S. […] The absorbance of each well was measured at 600 nm each 15 minutes. […] To construct this table the effect of the compounds on the growth curve of the bacteria was determined at a concentration equal to the IC50 for biofilm inhibtion, by using the Bioscreen system from Oy Growth Curves Ab Ltd.

S. Typhimurium ATCC14028 [4] = test: as above; assay type: cell-based, Salmonella Typhimurium; design: key: x: no influence on planktonic growth at the IC50 for biofilm inhibition; planktonic growth is retarded at the IC50 for biofilm inhibition; details: planktonic growth at the IC50 for biofilm inhibition, 25° C.
Source text: as §1

S. Typhimurium ATCC14028 [5] = test: as above; assay type: cell-based, Salmonella Typhimurium; details: 400 μM
Source text: Some of the tested compounds show a concentration range in which biofilm formation is inhibited but no effect on planktonic growth is observed. These compounds are particularly interesting for prevention of biofilm formation since the development of resistance against these compounds is less likely. Table 8 indicates whether the different compounds have an effect on the planktonic growth of the bacteria at the IC50 for biofilm inhibition. To construct Table 8, the effect of the tested compounds on the growth curve of the bacteria was determined at a concentration equal to the IC50 for biofilm inhibition, by using the Bioscreen system available from Oy Growth Curves Ab Ltd). The Bioscreen device from Oy Growth Curves Ab Ltd was used for measuring the influence of the chemical compounds on the planktonic growth of Salmonella Typhimurium and Pseudomonas aeruginosa. The Bioscreen is a computer controlled incubator/reader/shaker that uses 10×10 well microtiter plates and measures light absorbance of each well at a specified wave length in function of time. An overnight culture of S. […] The broth used was TSB 1/20 for the experiments at 16° C. and 25° C. For experiments at 37° C. CFA medium was used for S. […] As a control 3 μl of the appropriate solvent (DMSO or EtOH) was also added to the plate in 3- or 4-fold. The microtiter plate was incubated in the Bioscreen device at 16° C., 25° C. or 37° C. for at least 36 hours, with continious medium shaking. The absorbance of each well was measured at 600 nm each 15 minutes. Excel was used to generate the growth curves for treated the treated wells and the untreated control wells. Some of the compounds show a concentration range in which biofilm formation is inhibited but no effect on the planktonic growth is observed. Table 14 indicates if the different compounds have an effect on the planktonic growth of the bacteria at the IC50 for biofilm inhibition. To construct this table the effect of the compounds on the growth curve of the bacteria was determined at a concentration equal to the IC50 for biofilm inhibtion, by using the Bioscreen system from Oy Growth Curves Ab Ltd.

| IC50 [1] [µM] | IC50 ([1]; Pseudomonas aeruginosa, PA14) [µM] | SMILES | Influence on growth [2] | Influence on growth [3] | Influence on growth (S. Typhimurium ATCC14028 [4]) | Effect on growth at 400 μM (S. Typhimurium ATCC14028 [5]) |
| --- | --- | --- | --- | --- | --- | --- |
| 61.3 | – | OC1(c2ccc(Cl)cc2)C[n+]2cccnc2N1C1CCCCC1.[Br-] (stereo not shown) [Compound 64] | x | – | – | – |
| 8.89 | – | O=[N+]([O-])c1ccc(C2(O)C[n+]3cccnc3N2C2CCCCCCCCCCC2)cc1.[Br-] (stereo not shown) [Compound 69] | – | ∘ | ∘ | – |
| – | 27.1 | OC1(c2ccc(-c3ccccc3)cc2)C[n+]2cccnc2N1C1CCCC1.[Br-] (stereo not shown) [R1=Cyclopentyl, R3=4-biphenylyl, R4=H, 1-cyclopentyl-2-hydroxy-2-(4-biphenylyl)-2,3-dihydro-1H-imidazo[1,2-a]pyrimidin-4-ium bromide] | x | – | – | – |

| SMILES | IC50 [1] [µM] | IC50 ([1]; Pseudomonas aeruginosa, PA14) [µM] | Influence on growth [2] | Influence on growth [3] | Influence on growth (S. Typhimurium ATCC14028 [4]) | Effect on growth at 400 μM (S. Typhimurium ATCC14028 [5]) |
| --- | --- | --- | --- | --- | --- | --- |
| OC1(c2ccc(I)cc2)C[n+]2cccnc2N1Cc1ccccc1.[Br-] (stereo not shown) [Compound 73] | 51.7 | – | x | – | – | ∘ |

— patent US20130029981A1, “COMPOUNDS, COMPOSITIONS, AND METHODS FOR CONTROLLING BIOFILMS” (Katholieke Universiteit Leuven, priority 2009, published 2013)
